Experiments:
Setaria italica = test: Crop plant growth test, seeds on filter discs, 4 days, visual evaluation; type: in vivo
Outline: (§1)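 Compounds dried from DMSO onto filter discs; about 12 seeds per well with 200 µl sterile tap water, incubated 4 days in a humid chamber under 16 h light/8 h dark. Visual scoring: + means at least 75 % growth inhibition versus control, − means less than 75 %.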

Lepidium sativum = test: as above; type: in vivo
Outline: as §1

M. grisea H2O = test: microbe, parasite or virus in culture; type: cell-based, Magnaporthe grisea; conditions: for inhibition of growth at 5 µg/mL / inhibition of growth at 10 µg/mL / inhibition of growth at 25 µg/mL / inhibition of growth at 50 µg/mL: Pyricularia grisea, H2O, 24 h, read-out: Aktivität gegenüber M. grisea H2O
Candida albicans = test: Growth test in microtiter plates, HA medium, 24 h, visual evaluation; type: cell-based; parameters: key: +: kein Wachstum im Vergleich zur Wachstumskontrolle; -: Wachstum wie Wachstumskontrolle
Penicillium notatum = test: as above; type: cell-based; parameters: key: +: kein Wachstum im Vergleich zur Wachstumskontrolle; -: Wachstum wie Wachstumskontrolle
Paecilomyces variotii = test: as above; type: cell-based; parameters: key: +: kein Wachstum im Vergleich zur Wachstumskontrolle; -: Wachstum wie Wachstumskontrolle
Mucor miehei = test: as above; type: cell-based; parameters: key to Aktivität gegenüber M. miehei: +: kein Wachstum im Vergleich zur Wachstumskontrolle; -: Wachstum wie Wachstumskontrolle
[1] = system: alle getesteten Pathogene; type: cell-based; conditions: 5-50 µg/mL
M. grisea CM = test: microbe, parasite or virus in culture; type: cell-based, Magnaporthe grisea; conditions: for inhibition of growth at 5 µg/mL / inhibition of growth at 10 µg/mL / inhibition of growth at 25 µg/mL / inhibition of growth at 50 µg/mL: Pyricularia grisea, 24 h, read-out: Aktivität gegenüber M. grisea CM
P. infestans = test: microbe, parasite or virus in culture; type: cell-based, Phytophthora infestans; conditions: for inhibition of growth at 5 µg/mL / inhibition of growth at 10 µg/mL / inhibition of growth at 25 µg/mL / inhibition of growth at 50 µg/mL: Phytophthora infestans, 24 h, read-out: Aktivität gegenüber P. infestans
Botrytis cinerea = test: microbe, parasite or virus in culture; type: cell-based; conditions: for inhibition of growth at 5 µg/mL / inhibition of growth at 10 µg/mL / inhibition of growth at 25 µg/mL / inhibition of growth at 50 µg/mL: Botrytis cinerea, 24 h, read-out: Aktivität gegenüber B. cinerea

Row | SMILES | Aktivität gegenüber Nutzpflanzen: S. italica (Setaria italica; 10µg/R) | Aktivität gegenüber Nutzpflanzen: S. italica (Setaria italica; 20µg/R) | Aktivität gegenüber Nutzpflanzen: S. italica (Setaria italica; 50µg/R) | Aktivität gegenüber Nutzpflanzen: L. sativum (Lepidium sativum; 10µg/R) | Aktivität gegenüber Nutzpflanzen: L. sativum (Lepidium sativum; 20µg/R) | Aktivität gegenüber Nutzpflanzen: L. sativum (Lepidium sativum; 50µg/R) | inhibition of growth at 5 µg/mL (M. grisea H2O) [%] | inhibition of growth at 10 µg/mL (M. grisea H2O) [%] | inhibition of growth at 25 µg/mL (M. grisea H2O) [%] | inhibition of growth at 50 µg/mL (M. grisea H2O) [%] | Aktivität gegenüber C. albicans (Candida albicans; 10µg/mL) | Aktivität gegenüber C. albicans (Candida albicans; 50µg/mL) | Aktivität gegenüber P. notatum (Penicillium notatum; 10µg/mL) | Aktivität gegenüber P. notatum (Penicillium notatum; 50µg/mL) | Aktivität gegenüber P. variotii (Paecilomyces variotii; 10µg/mL) | Aktivität gegenüber P. variotii (Paecilomyces variotii; 50µg/mL) | Aktivität gegenüber M. miehei (Mucor miehei; 10µg/mL) | Aktivität gegenüber M. miehei (Mucor miehei; 50µg/mL) | Aktivität im Wachstums- und Keimungshemmungstest gegen die getesteten Pathogene [1] | inhibition of growth at 5 µg/mL (M. grisea CM) [%] | also measured
1 | CCC(C)(C)c1cc([Se]c2cc(C(C)(C)CC)cc(C(C)(C)CC)c2O)c(O)c(C(C)(C)CC)c1 [Verbindung 16, Bis(3,5-di(1,1-dimethylpropyl)-2-hydroxyphenyl)selen] | - (weniger als 75 % Wachstumshemmung im Vergleich zur Kontrolle) | - (weniger als 75 % Wachstumshemmung im Vergleich zur Kontrolle) | - (weniger als 75 % Wachstumshemmung im Vergleich zur Kontrolle) | - (weniger als 75 % Wachstumshemmung im Vergleich zur Kontrolle) | - (weniger als 75 % Wachstumshemmung im Vergleich zur Kontrolle) | - (weniger als 75 % Wachstumshemmung im Vergleich zur Kontrolle) | 0 to 25 | 0 to 25 | 0 to 25 | 0 to 25 | - | - | - | - | - | - | - | - | weder im Wachstums- noch im Keimungshemmungstest im verwendeten Konzentrationsbereich eine entsprechende Aktivität | 0 to 25 | inhibition of growth at 10 µg/mL (M. grisea CM): 0 to 25%; inhibition of growth at 25 µg/mL (M. grisea CM): 0 to 25%; inhibition of growth at 50 µg/mL (M. grisea CM): 0 to 25%; inhibition of growth at 5 µg/mL (P. infestans): 0 to 25%; inhibition of growth at 10 µg/mL (P. infestans): 0 to 25%; inhibition of growth at 25 µg/mL (P. infestans): 0 to 25%; inhibition of growth at 50 µg/mL (P. infestans): 0 to 25%; inhibition of growth at 5 µg/mL (Botrytis cinerea; 5µg/mL): 0 to 25%; inhibition of growth at 10 µg/mL (Botrytis cinerea; 10µg/mL): 0 to 25%; inhibition of growth at 25 µg/mL (Botrytis cinerea; 25µg/mL): 0 to 25%; inhibition of growth at 50 µg/mL (Botrytis cinerea; 50µg/mL): 0 to 25%
2 | Cc1cc(C(C)C)c(O)c([Se]c2c(C)c(C)cc(C(C)C)c2O)c1C [Verbindung 18, Bis(5,6-dimethyl-2-hydroxy-3-isopropylphenyl)selen] | - (weniger als 75 % Wachstumshemmung im Vergleich zur Kontrolle) | - (weniger als 75 % Wachstumshemmung im Vergleich zur Kontrolle) | - (weniger als 75 % Wachstumshemmung im Vergleich zur Kontrolle) | - (weniger als 75 % Wachstumshemmung im Vergleich zur Kontrolle) | - (weniger als 75 % Wachstumshemmung im Vergleich zur Kontrolle) | - (weniger als 75 % Wachstumshemmung im Vergleich zur Kontrolle) | 0 to 25 | 0 to 25 | 0 to 25 | 0 to 25 | - | - | - | - | - | - | - | - | weder im Wachstums- noch im Keimungshemmungstest im verwendeten Konzentrationsbereich eine entsprechende Aktivität | 0 to 25 | inhibition of growth at 10 µg/mL (M. grisea CM): 0 to 25%; inhibition of growth at 25 µg/mL (M. grisea CM): 0 to 25%; inhibition of growth at 50 µg/mL (M. grisea CM): 0 to 25%; inhibition of growth at 5 µg/mL (P. infestans): 0 to 25%; inhibition of growth at 10 µg/mL (P. infestans): 0 to 25%; inhibition of growth at 25 µg/mL (P. infestans): 0 to 25%; inhibition of growth at 50 µg/mL (P. infestans): 0 to 25%; inhibition of growth at 5 µg/mL (Botrytis cinerea; 5µg/mL): 0 to 25%; inhibition of growth at 10 µg/mL (Botrytis cinerea; 10µg/mL): 0 to 25%; inhibition of growth at 25 µg/mL (Botrytis cinerea; 25µg/mL): 0 to 25%; inhibition of growth at 50 µg/mL (Botrytis cinerea; 50µg/mL): 0 to 25%
3 | Oc1c(F)cc(F)cc1[Se]c1cc(F)cc(F)c1O [Verbindung 25, Bis(3,5-difluoro-2-hydroxyphenyl)selen] | - (weniger als 75 % Wachstumshemmung im Vergleich zur Kontrolle) | + (mind. 75 % Wachstumshemmung im Vergleich zur Kontrolle) | - (weniger als 75 % Wachstumshemmung im Vergleich zur Kontrolle) | - (weniger als 75 % Wachstumshemmung im Vergleich zur Kontrolle) | + (mind. 75 % Wachstumshemmung im Vergleich zur Kontrolle) | - (weniger als 75 % Wachstumshemmung im Vergleich zur Kontrolle) |  |  |  |  | - | + | + | + | + | - | + | + | durchgehende Aktivität gegen alle Pathogene |  | Effekt auf S. italica (Setaria italica; […]): deutlichen negativen Effekt; Effekt auf L. sativum (Lepidium sativum; […]): deutlichen negativen Effekt; Aktivität gegenüber M. grisea H2O (M. grisea H2O; 5µg/mL): +++ (mehr als 75 % der Sporen nicht gekeimt); Aktivität gegenüber M. grisea H2O (M. grisea H2O; 10µg/mL): +++ (mehr als 75 % der Sporen nicht gekeimt); Aktivität gegenüber M. grisea H2O (M. grisea H2O; 25µg/mL): +++ (mehr als 75 % der Sporen nicht gekeimt); Aktivität gegenüber M. grisea H2O (M. grisea H2O; 50µg/mL): +++ (mehr als 75 % der Sporen nicht gekeimt); Aktivität gegenüber M. grisea CM (M. grisea CM; 5µg/mL): +++ (mehr als 75 % der Sporen nicht gekeimt); Aktivität gegenüber M. grisea CM (M. grisea CM; 10µg/mL): +++ (mehr als 75 % der Sporen nicht gekeimt); Aktivität gegenüber M. grisea CM (M. grisea CM; 25µg/mL): +++ (mehr als 75 % der Sporen nicht gekeimt); Aktivität gegenüber M. grisea CM (M. grisea CM; 50µg/mL): +++ (mehr als 75 % der Sporen nicht gekeimt); Aktivität gegenüber P. infestans (P. infestans; 5µg/mL): +++ (mehr als 75 % der Sporen nicht gekeimt); Aktivität gegenüber P. infestans (P. infestans; 10µg/mL): +++ (mehr als 75 % der Sporen nicht gekeimt); Aktivität gegenüber P. infestans (P. infestans; 25µg/mL): +++ (mehr als 75 % der Sporen nicht gekeimt); Aktivität gegenüber P. infestans (P. infestans; 50µg/mL): +++ (mehr als 75 % der Sporen nicht gekeimt); mikrobizide Wirksamkeit gegenüber B. cinerea (Botrytis cinerea): mikrobizide Wirksamkeit; Aktivität gegenüber B. cinerea (Botrytis cinerea; 5µg/mL): + (key: +++: mehr als 75 % der Sporen nicht gekeimt; ++: zwischen 50 und 75 % der Sporen nicht gekeimt; +: zwischen 25 und 50 % der Sporen nicht gekeimt; -: zwischen 0 und 25 % der Sporen nicht gekeimt); Aktivität gegenüber B. cinerea (Botrytis cinerea; 10µg/mL): +++ (key: +++: mehr als 75 % der Sporen nicht gekeimt; ++: zwischen 50 und 75 % der Sporen nicht gekeimt; +: zwischen 25 und 50 % der Sporen nicht gekeimt; -: zwischen 0 und 25 % der Sporen nicht gekeimt); Aktivität gegenüber B. cinerea (Botrytis cinerea; 25µg/mL): +++ (key: +++: mehr als 75 % der Sporen nicht gekeimt; ++: zwischen 50 und 75 % der Sporen nicht gekeimt; +: zwischen 25 und 50 % der Sporen nicht gekeimt; -: zwischen 0 und 25 % der Sporen nicht gekeimt); Aktivität gegenüber B. cinerea (Botrytis cinerea; 50µg/mL): +++ (key: +++: mehr als 75 % der Sporen nicht gekeimt; ++: zwischen 50 und 75 % der Sporen nicht gekeimt; +: zwischen 25 und 50 % der Sporen nicht gekeimt; -: zwischen 0 und 25 % der Sporen nicht gekeimt)

— patent EP3262942A1, “SELENODIARYLS FOR USE AS MICROBICIDE OR AS MEDICINE” (Evonik Degussa GmbH, priority 2016, dated 2018)
